In test [1] the test system is gastric secretion stimulated by histamine. Kind of test: Anti-secretory effects when gastric secretion is stimulated by histamine (Experiment 3-1). It counts as in vivo, Sprague-Dawley male rats. The note with it: intravenous. How it is done: In accordance with the method [see Ghosh and Shild, et al., British Journal of pharmacology 13:54-61 (1958)], anti-secretory effects of the test substances were studied in this Experiment. Sprague-Dawley male rats having a body weight of 200±20 g were divided into 3 groups, Group 1 to be administered with the compound of Example 34, Group 2 to be administered with SK&F96067[see Keeling, D. […] The rats of each Group, deprived of food for 24 hours before the experiment with free access to water, were anesthetized by intraperitoneally administering of 1.5 g/kg of 20% aqueous urethane solution and positioned on the test plate which was heated and maintained at 37° C. The anesthetized rats were cannulated at the right jugular vein for the administration of the test compounds and the left jugular vein for the administration of stimulating substances. After an abdominal incision, tubes were inserted into the esophagus and duodenum, each of which was connected with saline in a thermostat and a fraction collector. […] To the left jugular vein, histamine was administered as a gastric secretion stimulator. […] The gastric secretion inhibition (%) of the test compounds was calculated from the following equation: The gastric secretion inhibition (%) of the test compounds =(A-C)/(A-B)×100 . . . (IV) in which […]

In test [2] the test system is gastric secretion stimulated by pentagastrin. Kind of test: Inhibition of gastric secretion stimulated by pentagastrin (Experiment 3-2). The format is in vivo, Sprague-Dawley male rats. Conditions: intravenous.
Test [3] concerns the target T1, H^+ /K^+ ATPase (proton pump), gastric vesicles (Sus scrofa, UniProt P19156).
T1 construct: Gastric vesicles were prepared from pig stomach; from tissue; host or cells: pig stomach, lyophilized gastric vesicles
Kind of test: Determination of H+/K+ ATPase activity, Lineweaver-Burk kinetics versus K+ (Experiment 4-2). It counts as biochemical, pig. The method, then: Gastric vesicles were prepared from pig stomach by the method described in Saccomani G., et al., J. Biol. Chem. 250, 4802-4809 (1975). The vesicles were lyophilized and kept at -70° C. The protein content was determined by the method of Lowry et al., using bovine serum albumin as standard[see Lowry, O. H., Rosebrough, N. J. and Randall, R. J., J. Biol. Chem. 193, 265-275 (1951)].
Test tubes were divided into 4 groups, each having 3 test tubes. As a control group, group 1 was added with the 10 μl of DMSO. Groups 2, 3 and 4 were administered with the compound prepared in example 34 whose final concentration are 0.17 μM, 0.33 μM and 0.67 μM, respectively. Each group was further divided into 3 small groups, in which enzymes were activated by ATP; ATP and Mg^++; and ATP, Mg^++ and K^+, respectively.
To all of the test tubes, were added 100 μl of lyophilized vesicles prepared at the concentration of 25 μg protein/ml and then 90 μl of 5 mM Pipes/Tris buffer pH 7.0. The compound prepared in Example 34 was added to each Group until the final concentration thereof became 0.17, 0.33 or 0.67 μM, respectively, They were preincubated for 15 minutes.
50 μl of ATP(3 mM) was added to each of the four Groups and the 50 μl of MgCl2 (2 mM) was added only to the 2nd and 3rd small groups of all Groups. Further, to the 3rd small groups of all Groups, were added 50 μl of KCl solution of various concentrations(from 0.1 mM to 30 mM) and then 150μl of Pipes/Tris buffer of pH 7.0. To the rest small groups, Pipes/Tris buffer of pH 7.0 was added until the volume became the same as that of the 3rd small group.
The test tube's were incubated at 37° C. for 30 minutes and then the reaction was terminated by adding 25% cold trichloroacetic acid solution. They were centrifuged by means of a microcentrifuge and the supernatant was taken up for the measurement of the released inorganic phosphate content by an automatic analyzer(CIBA CORNING, Express 550).
In accordance with the same procedures as above, except that 15 and 30 μm of omeprazole and 0.75, 1.5 and 3.0 μm of SK&F96067 were used as comparative substances, released inorganic phosphate content was measured.
The released inorganic phosphate contents of the three small groups were considered as the activity of H^+ /K^+ ATPase at each of the concentrations employed. The specific activity of H^+ /K^+ ATPase was calculated from the following equation:
Specific activity=(A-C)-(B-C) . . . (V)
A is the activity of enzyme activated by ATP, Mg^++ and , K^+ ;
B is the activity of enzyme activated by ATP and M^++ and
C is the activity of enzyme activated by ATP.
The specific activity, thus calculated, of Groups 1, 2, 3 and 4 which employed DMSO and the compound of Example 34 at 3 different concentrations were then plotted with respect to the concentration of KCl in FIG. 1 according to the method of Lineweaver-Burk, wherein .box-solid., .quadrature. and .largecircle. represent the respective concentrations of the compound of Example 34 of 0.67 μM, 0.33 μM and 0.17 μM; and .oval-solid. represents concentration of the DMSO compound. FIG. 2 depicts the Lineweaver-Burk plot of the specific activities obtained from SK&F96067, wherein .box-solid., .quadrature. and .largecircle. represent its respective concentrations of 3.0 μM, 1.5 μM, 0.75 μM; and .oval-solid. represents concentration of the DMSO compound. FIG. 3 illustrates the Lineweaver-Burk plot of the specific activities obtained from omeprazole, wherein .oval-solid. and .quadrature. represent its concentrations of 15 μM and 30 μM; and .largecircle. represents the concentration of DMSO.

Test [4] has as its target T2, H^+ /K^+ ATPase, gastric vesicles (Sus scrofa, UniProt P19156).
T2 construct: Gastric vesicles were prepared from pig stomach; from tissue; host or cells: pig stomach, lyophilized gastric vesicles
Kind of test: Reversibility of inhibition, Dilution and Washout method (Experiment 4-3). It counts as biochemical, pig. The method, then: The vesicles were lyophilized and kept at -70° C.
To all […] groups, was added 100 μl of lyophilized vesicles prepared in Experiment 4-1 at the concentration of 100 μg protein 1 ml. Then, 5 mM Pipes/Tris buffer(pH 6.4 ) was added to the three groups until the volume of test tubes became 150 μl. After the preincubation for 15 minutes, H^+ /K^+ ATPase activity was measured in accordance with the same procedures as in Experiment 4-2. The concentrations of the test substances as indicated above are the final concentrations.
After the completion of preincubation, each group was diluted 50 times with 5 mM Pipes/Tris buffer(pH 6.4), and then centrifuged for 60 minutes by means of Beckman ultracentrifuge(Model L8-80). The supernatant was discarded and the pellet was suspended with 5 mM Pipes/Tris buffer pH 6.4 until the volume became the same as the preincubation volume.

The structures appear in SMILES notation.

T2 sequence (P19156 2-1034 limits assumed): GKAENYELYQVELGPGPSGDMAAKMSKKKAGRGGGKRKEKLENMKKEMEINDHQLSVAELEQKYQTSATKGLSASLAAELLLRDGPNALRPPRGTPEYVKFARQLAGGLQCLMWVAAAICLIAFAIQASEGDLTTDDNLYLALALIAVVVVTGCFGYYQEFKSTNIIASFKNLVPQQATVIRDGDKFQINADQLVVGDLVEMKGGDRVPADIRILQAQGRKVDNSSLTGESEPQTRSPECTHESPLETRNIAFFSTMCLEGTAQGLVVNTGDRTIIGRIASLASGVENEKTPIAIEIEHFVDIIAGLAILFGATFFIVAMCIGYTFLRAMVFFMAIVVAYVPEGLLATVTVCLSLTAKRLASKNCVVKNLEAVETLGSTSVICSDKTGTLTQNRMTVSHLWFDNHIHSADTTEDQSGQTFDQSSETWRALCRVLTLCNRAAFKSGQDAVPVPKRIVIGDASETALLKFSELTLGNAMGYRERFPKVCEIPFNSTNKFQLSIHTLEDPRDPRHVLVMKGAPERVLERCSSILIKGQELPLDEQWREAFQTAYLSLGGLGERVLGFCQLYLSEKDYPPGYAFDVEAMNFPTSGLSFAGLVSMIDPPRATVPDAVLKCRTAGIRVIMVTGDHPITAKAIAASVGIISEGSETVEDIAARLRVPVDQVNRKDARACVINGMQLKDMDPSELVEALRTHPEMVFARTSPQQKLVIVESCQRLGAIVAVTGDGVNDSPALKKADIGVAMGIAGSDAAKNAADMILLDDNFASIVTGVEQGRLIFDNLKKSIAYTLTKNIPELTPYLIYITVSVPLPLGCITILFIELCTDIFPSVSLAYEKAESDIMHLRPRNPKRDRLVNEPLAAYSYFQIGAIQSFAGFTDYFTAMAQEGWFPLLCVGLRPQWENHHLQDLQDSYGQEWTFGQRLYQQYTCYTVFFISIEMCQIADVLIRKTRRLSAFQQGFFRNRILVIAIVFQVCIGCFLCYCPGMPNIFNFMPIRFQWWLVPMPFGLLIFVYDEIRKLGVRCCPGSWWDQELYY
T2 sequence (P18434 whole entry partner): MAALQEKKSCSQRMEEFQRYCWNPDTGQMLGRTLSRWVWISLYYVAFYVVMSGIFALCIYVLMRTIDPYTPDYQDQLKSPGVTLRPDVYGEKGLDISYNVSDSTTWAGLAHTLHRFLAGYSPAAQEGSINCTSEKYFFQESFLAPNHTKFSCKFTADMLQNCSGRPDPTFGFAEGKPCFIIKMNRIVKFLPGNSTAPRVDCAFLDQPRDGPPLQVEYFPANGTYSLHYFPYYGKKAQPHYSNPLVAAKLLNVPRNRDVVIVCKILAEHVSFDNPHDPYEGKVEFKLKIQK
T1 sequence (P19156 2-1034 limits assumed): as the sequence (P19156 2-1034 limits assumed) above
T1 sequence (P18434 whole entry partner): as the sequence (P18434 whole entry partner) above

For the compound `CCCC(=O)c1cnc2c(OC)cccc2c1Nc1ccccc1C` [SK&F96067], the “The gastric secretion inhibition (%)” value stood at 29.8% in test [1] (0.5 mg/kg), 57.1% in test [1] (1.0 mg/kg) and 75.9% in test [1] (3.0 mg/kg). Moreover, the ED50 (as a rule, the dose that gives a 50% effect, or the effect in half of the subjects) in test [1] (Rattus norvegicus, read-out: ED50, gastric secretion inhibition) came out at 0.96 mg/kg; in test [2] (Rattus norvegicus) it was 1.85 mg/kg. The “The gastric secretion inhibition” value in test [2] (1.0 mg/kg) turned out to be 32.6%; in test [2] (3.0 mg/kg), 64.0%; in test [2] (5.0 mg/kg), 77.3%. In test [3] (Lineweaver-Burk plot, KCl 0.1 to 30 mM), the “Competitive inhibition with K+ at the K+ binding site of proton pump” value was “inhibited competitively with K^+”. Also, the affinity in test [3] (Lineweaver-Burk, versus K+, pH 7.0) corresponds to a Ki of 700 nM. Moreover, the “Reversibility of the inhibition of the enzyme activity” value in test [4] (conclusion from Table 4) is given as “reversible”. Moreover, the “Inhibition of H+/K+ ATPase activity before Dilution and Washout” value in test [4] (pH 6.4, Example 34 at 6 μM, omeprazole and SK&F96067 at 60 μM) was 80%.

For the origin of these results see patent US5686458A, “Quinazoline deriviates for treating peptic ulcer” (Yuhan Corporation, priority 1992, dated 1997).
